The assay is described as follows: Cuticle abrasion of treated hair switches. As to the method: Cuticle abrasion and sensory experiments were performed on bleached hair with unbleached “virgin” hair as a control.
A shampoo base was used to treat hair switches:
Two samples of the above formulation were prepared, with the addition of 0.2% arginine to one of the samples.
Four sets of switches were used and treated as follows:
Set 1. Bleached switches washed 6 times in base, with final base wash containing 0.2% arginine.
Set 2. Bleached switches based washed 6 times in base with 0.2% arginine
Set 3. Bleached switches washed 6 times in base without 0.2% arginine
Set 4. Unbleached virgin hair washed in base without arginine.
The treated samples were subjected to cuticle abrasion (in duplicate).

The values that follow come from patent US6509011B1, “Method of hair treatment using organic amino compounds” (Unilever Home & Personal Care USA, division of Conopco, Inc., priority 1999, dated 2003).

Structures are written as SMILES.

As for `N=C(N)NCCC[C@H](N)C(=O)O` [arginine], the “cuticle cohesion after cuticle abrasion” value (set 1: bleached switches washed 6 times in base, only final wash containing 0.2% arginine) is on record as “evidence of improved cuticle cohesion” and the “cuticle cohesion after cuticle abrasion” value (set 2: bleached switches washed 6 times in shampoo base with 0.2% arginine, compared with set 3 (base without arginine)) is listed as “significantly better cuticle cohesion”. In addition, the “amount of cuticle removed by abrasion” value (set 1: bleached switches washed 6 times in base, only final wash containing 0.2% arginine, compared with set 3 (no arginine)) is “Significantly less cuticle was removed than set 3”. Moreover, where the note is “set 2: bleached switches washed 6 times in shampoo base with 0.2% arginine”, the “removed cuticle sample size and appearance” value was “closer in sample size and appearance to the unbleached sample”.
